“And” between values parts separate entries of the source, which are not always exact repeats. Equal values may be shown once. “Also recorded” adds a separate entry of the source. Read-outs that look alike come from different tables or passages of the source.
How the values were obtained:
[1] = Plasma stability assay, rat plasma; type: in vitro ADME; conditions: 37° C., Method 1 (5 μM)
Outline: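 Compound incubated in plasma at 37° C, either at 5 μM (0.5% DMSO) sampled at 0, 15, 30, 60, 120 min (Method 1) or at 10 μM (2% DMSO) sampled at 0, 15, 30, 60, 90, 120 min (Method 2). Quenched with cold acetonitrile plus internal standard; LC-MS/MS, % remaining relative to 0 min.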

IL-22 = assay: Human PBMC assay, IL-22 by ELISA (CD2/CD3/CD28 bead stimulation); type: cell-based; conditions: 72 hours
Method: CD2, CD3, and CD28 antibody-coated beads from the T-cell activation/expansion kit (Miltenyi Biotec) were added to the PBMC at a bead-to-cell ratio of 1:2. The mixture of PBMCs and beads were seeded into the wells of the round-bottom 96-well plate at a concentration of 2×10^5 cells/well in a total volume of 200 μL. The cells were cultured for 72 hours at 37° C. and 5% CO2 and then supernatants were collected and IL-17A and IL-22 levels were measured by ELISA. […] The final compound concentration ranged from 30,000 nM to 0.005 nM and the final DMSO concentration per well was 0.3%. PBMCs were seeded at approximately […] in the wells of the 96-well tissue culture plate in a total volume of 190 μL. The plate was incubated for 1 hour at 37° C. and 5% CO2. […] The cells were then cultured for 24 hours at 37° C. and 5% CO2. The supernatant was collected and CXCL10 levels were measured by ELISA.

BRD4 BD2 = molecular target: T1, BRD4 BD2 (Homo sapiens, UniProt O60885); assay: NanoBRET bromodomain assay, NanoLuc-BRD4-BD2 fusion vector in HEK293 cells; type: cell-based
T1 construct: HEK293 cells were transfected using NanoLuc-BRD4-BD1 or NanoLuc-BRD4-BD2 fusion vectors; host or cells: HEK293
Excerpt: Bromodomain Assay Procedure

[2] = Pharmacokinetics of Example 101 in Lewis rats (oral, CIA study); type: in vivo, Lewis rat; conditions: day 20, 10 mg/kg, individual test subjects
[3] = Beagle dog PK study 1 (IV and PO, propylene glycol-based formulation); type: in vivo; conditions: for concentration at 0.25 h / concentration at 0.5 h / concentration at 1 h / concentration at 2 h / concentration at 4 h / concentration at 8 h / concentration at 24 h: beagle, dog, plasma, po, 5 mg/kg
Method: The purpose of this study was to examine the pharmacokinetics of Example 101 in beagle dogs. […] An oral PK study was also undertaken in Lewis rats—see Experimental Method C.
Body weight was recoded prior to dosing, and detailed clinical observations were made prior to dosing and throughout the study, as needed.
Subsequently, 17.320 mL Vitamin E TPGS was added, and the solution was vortexed and sonicated. Then, 51.960 mL water was added, and solution was then heated. […] Subsequently, 39.894 mL Vitamin E TPGS was added, and the solution was vortexed and sonicated. Then, 119.682 mL water was added, and the solution was heated.
Blood samples (˜0.3 mL) were collected according to a schedule (detailed below) by venipuncture of peripheral veins except for the dosing vein, and EDTA-K2 was used as anticoagulant. Within 30 minutes of collection, the samples were centrifuged at approximately 2000× g for 10 minutes at 4° C. to obtain blood plasma. The plasma samples were immediately divided into two aliquots (˜75 μL each), transferred to a cryogenic vial, and stored in a freezer at −75±15° C. prior to analysis.
Blood samples were collected at 0.25, 0.5, 1, 2, 4, 8, and 24 h following the initial dosing (0 h).
The experiments were conducted on a Shimadzu DGU-20A5R and AB API 5500+LC/MS/MS instrument with an Agilent Poroshell EC-C18 4 μm (50×2.1 mm) column. A gradient of 95% water (0.1% formic acid)/95% acetonitrile (0.1% formic acid) was used as the mobile phase. The sample injection volume was 1 μL, and the flow rate was 0.6 mL/min. The gathered data were used for pharmacokinetic calculations using T½, C0, AUClast, AUCinf, MRTinf, CI, Vss, and Number of Points for Regression as parameters.

[4] = PK study 1, PO 5 mg/kg, Test Animal 1, read-out: Plasma concentration
[5] = PK study 1, PO 5 mg/kg, Test Animal 2, read-out: Plasma concentration
[6] = PK study 1, PO 5 mg/kg, Test Animal 3, read-out: Plasma concentration
[7] = PK study 1, PO 5 mg/kg, read-out: Average plasma concentration, Mean

For CNC(=O)c1[nH]c(C(=O)NC2CCC2)cc1O[C@@H](C)c1ccccc1 [Example 101, N^5-cyclobutyl-N^2-methyl-3-(1-phenylethoxy)-1H-pyrrole-2,5-dicarboxamide], the “Plasma Stability (% remaining at 120 minutes) Rat” value [1] was 61%, the “IC50 for IL-22 relative to GSK620” value (IL-22) was “substantially lower 1050” and the “selectivity for BDII relative to GSK620” value (BRD4 BD2) was “greater than about two orders of magnitude”. For the same compound, the “Plasma concentration at 14 h” value [2] was 68.5 ng/mL and 159 ng/mL and 185 ng/mL, the “AUClast/D, Mean” value ([3]; PK study 1, IV 1 mg/kg) was 1883 (ng · h/mL)/(mg/kg) and the “AUC—% Extrap_obs, Mean” value ([3]; PK study 1, IV 1 mg/kg) was 0.73%. The “C0, Mean” value ([3]; PK study 1, IV 1 mg/kg) was 1512 ng/mL, the “Cl_obs, Mean” value ([3]; PK study 1, IV 1 mg/kg) was 8.84 mL/min/kg and the “Vss_obs, Mean” value ([3]; PK study 1, IV 1 mg/kg) was 0.733 L/kg. The Vss_obs ([3]; PK study 1, IV 1 mg/kg, Test Animal 1) was 0.734 L/kg, the Vss_obs ([3]; PK study 1, IV 1 mg/kg, Test Animal 2) was 0.747 L/kg and the Vss_obs ([3]; PK study 1, IV 1 mg/kg, Test Animal 3) was 0.719 L/kg. The “AUClast/D, Mean” value ([3]; PK study 1, PO 5 mg/kg) was 830 (ng · h/mL)/(mg/kg), the “AUC—% Extrap_obs, Mean” value ([3]; PK study 1, PO 5 mg/kg) was 0.531% and the “F, Mean” value ([3]; PK study 1, PO 5 mg/kg) was 44.0%. The F ([3]; PK study 1, PO 5 mg/kg, Test Animal 1) was 48.0%, the AUClast/D ([3]; PK study 1, PO 5 mg/kg, Test Animal 3) was 1000 (ng · h/mL)/(mg/kg) and the “clinical observations after intravenous administration” value ([3]; beagle dogs, PK study 1, group 1 (IV), 20% propylene glycol/20% Vitamin E TPGS/60% water, individual animals) was “Vomitus with solid food and soft feces; also recorded: twitching of hindlimbs; also recorded: Slight twitching and lacrimation”. The “clinical observations after oral administration” value ([3]; beagle dogs, PK study 1, group 2 (PO), 20% propylene glycol/20% Vitamin E TPGS/60% water) was “Loose feces”, the “time post-administration at which plasma concentrations began to steadily decrease” value ([3]; beagle dogs, PK study 1, oral administration) was “approximately 1 h” and the “tolerability in dog PK studies” value ([3]; beagle dogs, oral and intravenous) was “well tolerated”. For the same compound, the concentration at 0.25 h [3, 4] was 173 ng/mL, the concentration at 0.25 h [3, 5] was 775 ng/mL and the concentration at 0.25 h [3, 6] was 309 ng/mL. The concentration at 0.25 h [3, 7] was 419 ng/mL, the concentration at 0.5 h [3, 4] was 1480 ng/mL and the concentration at 0.5 h [3, 5] was 1550 ng/mL. It also gave a concentration at 0.5 h [3, 6] of 1320 ng/mL, a concentration at 0.5 h [3, 7] of 1450 ng/mL and a concentration at 1 h [3, 4] of 2220 ng/mL. For the same compound, the concentration at 1 h [3, 5] was 1180 ng/mL, the concentration at 1 h [3, 6] was 2240 ng/mL and the concentration at 1 h [3, 7] was 1880 ng/mL. It also gave a concentration at 2 h [3, 4] of 1130 ng/mL, a concentration at 2 h [3, 5] of 621 ng/mL and a concentration at 2 h [3, 6] of 1310 ng/mL. It also gave a concentration at 2 h [3, 7] of 1020 ng/mL, a concentration at 4 h [3, 4] of 142 ng/mL and a concentration at 4 h [3, 5] of 103 ng/mL. For the same compound, the concentration at 4 h [3, 6] was 254 ng/mL, the concentration at 4 h [3, 7] was 166 ng/mL and the concentration at 8 h [3, 4] was 9.51 ng/mL. For the same compound, the concentration at 8 h [3, 5] was 14.8 ng/mL, the concentration at 8 h [3, 6] was 9.52 ng/mL and the concentration at 8 h [3, 7] was 11.3 ng/mL. It also gave a concentration at 24 h [3, 4] of 4.58 ng/mL and a concentration at 24 h [3, 7] of 1.53 ng/mL.
